From patent US20250115609A1, “AROMATIC HETEROCYCLIC COMPOUNDS, PREPARATION METHOD THEREFOR AND USES THEREOF” (Innovstone Therapeutics Limited, priority 2021, published 2025)
Where two headings read alike, the source gives them in different places.

Legend:
hENPP1 enzyme = hENPP1 enzyme (Homo sapiens (Human), UniProt P22413); test: ENPP1 enzymatic inhibition in biochemical assay (TMP-pNP hydrolysis, OD405); details: ENPP1 enzymatic inhibition activity, TMP-pNP substrate, pH 9.5
From the text: ENPP1 was a transmembrane glycoprotein capable of hydrolyzing nucleotides and derivatives with a nucleotide-5′-monophosphate structure. ENPP1 was capable of hydrolyzing artificial thymidine 5′-monophosphate p-nitrophenyl ester (TMP-pNP) into nucleotide 5′-monophosphate and p-nitrophenol which was a chromogenic product. The formation amount of p-nitrophenol product could be directly measured by its absorbance at 405 nm, which was directly proportional to the enzyme activity.
The compound was dissolved in DMSO, with stock concentration of 1 mM, and diluted in a 4-fold serial gradient to make 10 concentration points. Echo was used to transfer 300 nL of gradient concentrations of compound to a 384-well assay plate (final concentration: starting at 10 μM, 4-fold serial gradient dilution, 10 concentration points). First, 15 μL of 0.2 ng/uL hENPP1 enzyme (2× final concentration) prepared in assay buffer (250 mM NaCl, 50 mM Tris, pH=9.5) was added to each well. Then, 15 μL of 400 μM TMP-pNP (2× final concentration) diluted in assay buffer was added. After incubating at 37° C. for 0.5 hrs, the OD405 nm value was read by the microplate reader. The percentage inhibition was calculated using the formula: % Inhibition Rate=(ODhigh signal control−ODsample well)/(ODhigh signal control−ODlow signal control)*100. The IC50 value was calculated using four-parameter fit. The high signal control was the DMSO group without inhibitors, and the low signal control was the blank control group.

[1] = molecular target: ENPP1 in cultured MDA-MB-231 cells (Homo sapiens (Human), UniProt P22413); test: ENPP1 enzymatic inhibition in cellular assay (MDA-MB-231 cells, TMP-pNP); format: cell-based; details: ENPP1 enzymatic inhibition activity at the cellular level
Procedure: ENPP1 was mainly expressed on the surface of cell membranes and could hydrolyze 2′3′-cGAMP into 5′-GMP and 5′-AMP. Similarly, ENPP1 could also hydrolyze the synthetic phosphate TMP-pNP, generating nucleotide-5′-monophosphate and the chromogenic product p-nitrophenol. Therefore, TMP-pNP was used as a substrate to reflect the enzyme activity of ENPP1 in cultured MDA-MB-231 cells. The amount of p-nitrophenol formed in the culture medium was determined by absorbance at 405 nim, which was directly proportional to the activity of ENPP1.
MDA-MB-231 cells was seeded with a density of 6000 per well in 384-well plate and cultured overnight (about 18 hrs) at 37° C. The compound was diluted into a 50× serial gradient dilution using an assay buffer (250 mM NaCl, 50 mM Tris, pH=9.5), starting at 500 μM, and diluted in a 4-fold serial gradient to make 10 concentration points. The cell culture medium was removed, and 10 μL of gradient concentrations of compounds were added to each well of the 384-well assay plate (final concentration: starting at 10 μM, 4-fold serial gradient dilution, with 10 concentration points). Then, 10 μL of 1 mM TMP-pNP (2× final concentration) dissolved in the assay buffer was added to the well. After incubating at 37° C. for 3 hrs, the OD405 nm value was read by the microplate reader. The percentage inhibition was calculated using the formula: % Inhibition Rate=(ODhigh signal control−ODsample well)/(ODhigh signal control−ODlow signal control)*100. The IC50 value was calculated using four-parameter fit. The high signal control was the DMSO group without inhibitors, and the low signal control was the blank control group.

[2] = Pharmacokinetics in mice, compound concentration by LC-MS/MS; format: in vivo, CD-1 male mice; details: for AUC(0-t): read-out: AUC0-24 h; for Vd: read-out: VSS
[3] = male, CD-1, mouse, plasma, 2 mg/kg, IV, 2 mpk
[4] = male, CD-1, mouse, plasma, 10 mg/kg, PO, 10 mpk
[5] = male, CD-1, mouse, plasma, 10 mg/kg, PO, 10 mpk vs IV, 2 mpk
[6] = male, CD-1, mouse, plasma, 10 mg/kg, PO, 10 mpk, read-out: Cmax
[7] = male, CD-1, mouse, plasma, 10 mg/kg, PO, 10 mpk, read-out: Tmax

ENPP1 in cultured MDA-MB-231 cells, sequence (P22413 whole entry): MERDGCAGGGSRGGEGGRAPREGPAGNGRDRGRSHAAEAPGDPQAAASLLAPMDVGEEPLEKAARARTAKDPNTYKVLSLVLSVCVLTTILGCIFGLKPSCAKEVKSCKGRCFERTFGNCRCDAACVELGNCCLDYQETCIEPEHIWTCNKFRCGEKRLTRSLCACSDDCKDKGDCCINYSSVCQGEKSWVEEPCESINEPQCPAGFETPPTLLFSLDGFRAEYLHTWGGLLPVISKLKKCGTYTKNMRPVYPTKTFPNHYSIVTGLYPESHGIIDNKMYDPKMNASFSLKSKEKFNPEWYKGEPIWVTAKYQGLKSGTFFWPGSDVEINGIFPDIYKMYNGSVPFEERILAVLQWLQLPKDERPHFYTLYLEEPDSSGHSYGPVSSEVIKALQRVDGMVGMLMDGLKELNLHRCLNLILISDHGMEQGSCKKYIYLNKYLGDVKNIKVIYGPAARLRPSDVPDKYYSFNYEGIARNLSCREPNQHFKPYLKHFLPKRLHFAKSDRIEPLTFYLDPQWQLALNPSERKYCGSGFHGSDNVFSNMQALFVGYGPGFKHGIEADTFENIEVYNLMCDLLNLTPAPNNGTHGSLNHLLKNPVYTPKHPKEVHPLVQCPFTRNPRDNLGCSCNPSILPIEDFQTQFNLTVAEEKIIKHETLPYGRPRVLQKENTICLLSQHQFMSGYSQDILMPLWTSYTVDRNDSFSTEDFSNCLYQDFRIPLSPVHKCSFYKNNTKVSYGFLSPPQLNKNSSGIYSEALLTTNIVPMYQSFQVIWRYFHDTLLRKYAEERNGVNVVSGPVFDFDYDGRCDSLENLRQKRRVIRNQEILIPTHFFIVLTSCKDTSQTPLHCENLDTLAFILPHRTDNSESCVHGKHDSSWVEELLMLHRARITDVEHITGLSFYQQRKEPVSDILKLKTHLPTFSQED
hENPP1 enzyme, sequence (P22413 whole entry): as above

COc1ccc2c3c(cnc2n1)COC(=O)N3Cc1ccc(S(N)(=O)=O)cc1F [Compound 071, 3-fluoro-4-((8-methoxy-2-oxo-2H-[1,3]oxazino[5,4-c][1,8]naphthyridin-1(4H)-yl)methyl)benzenesulfonamide]
IC50 (hENPP1 enzyme): 0.1 to 0.2 nM

COc1cc2ncc3c(c2cc1F)N(Cc1c(F)cc(S(N)(=O)=O)cc1F)C(=O)OC3 [Compound 048, 3,5-difluoro-4-((9-fluoro-8-methoxy-2-oxo-2H-[1,3]oxazino[5,4-c]quinolin-1(4H)-yl)methyl)benzenesulfonamide]
IC50 (hENPP1 enzyme): < 0.1 nM
EC50 [1]: < 0.5 nM
clearance [2, 3]: 1.92 mL/min/kg
half-life [2, 3]: 3.07 h
AUC(0-t) [2, 3]: 18300 ng·h/mL
Vd [2, 3]: 0.46 L/kg
half-life [2, 4]: 2.79 h
bioavailability [2, 5]: 38.1%
AUC(0-t) [2, 4]: 34800 ng·h/mL
Cmax [2, 6]: 4870 ng/mL
Tmax [2, 7]: 0.583 h

COc1ccc2c3c(cnc2n1)CCC(=O)N3Cc1c(F)cc(S(N)(=O)=O)cc1F [Compound 054, 3,5-difluoro-4-((8-methoxy-2-oxo-3,4-dihydropyrido[2,3-h][1,6]naphthyridine-1(2H)-yl)methyl)benzenesulfonamide]
IC50 (hENPP1 enzyme): < 0.1 nM
clearance [2, 3]: 4.1 mL/min/kg
half-life [2, 3]: 3.51 h
AUC(0-t) [2, 3]: 8090 ng·h/mL
Vd [2, 3]: 0.826 L/kg
half-life [2, 4]: 3.39 h
bioavailability [2, 5]: 49.7%
AUC(0-t) [2, 4]: 20100 ng·h/mL
Cmax [2, 6]: 7900 ng/mL
Tmax [2, 7]: 0.5 h

COc1cc2ncc3c(c2cc1F)N(Cc1c(F)cc(S(N)(=O)=O)cc1F)C(=O)NC3 [Compound 007, 3,5-difluoro-4-((9-fluoro-8-methoxy-2-oxo-3,4-dihydropyrimido[5,4-c]quinolin-1(2H)-yl)methyl)benzenesulfonamide]
IC50 (hENPP1 enzyme): 0.1 to 0.2 nM
EC50 [1]: < 0.5 nM

COc1ccc2c(ncc3ncc(=O)n(Cc4c(F)cc(S(N)(=O)=O)cc4F)c32)n1 [Compound 002, 3,5-difluoro-4-((8-methoxy-2-oxopyrazino[2,3-c][1,8]naphthyridin-1(2H)-yl)methyl)benzenesulfonamide]
IC50 (hENPP1 enzyme): 0.2 to 2 nM

COc1ccc2c3c(cnc2c1)N(C(=O)CO)CC(=O)N3Cc1c(F)cc(S(N)(=O)=O)cc1F [Compound 072]
IC50 (hENPP1 enzyme): 0.2 to 2 nM

COc1ccc2c3c(cnc2n1)COC(=O)N3Cc1ccc(S(N)(=O)=O)cc1 [Compound 067, 4-((8-methoxy-2-oxo-2H-[1,3]oxazino[5,4-c][1,8]naphthyridin-1(4H)-yl)methyl)benzenesulfonamide]
IC50 (hENPP1 enzyme): 0.2 to 2 nM

COc1ccc2c3c(cnc2n1)CN(CC(F)(F)F)C(=O)N3Cc1c(F)cc(S(N)(=O)=O)cc1F [Compound 056]
IC50 (hENPP1 enzyme): 0.1 to 0.2 nM

COc1ccc2c(ncc3[nH]c(=O)c(=O)n(Cc4c(F)cc(S(N)(=O)=O)cc4F)c32)n1 [Compound 062, 3,5-difluoro-4-((8-methoxy-2,3-dioxo-3,4-dihydropyrazino[2,3-c][1,8]naphthyridine-1(2H)-yl)methyl)benzenesulfonamide]
IC50 (hENPP1 enzyme): < 0.1 nM
EC50 [1]: < 0.5 nM

COc1nc2ncc3c(c2cc1F)N(Cc1c(F)cc(S(N)(=O)=O)cc1F)C(=O)CN3 [Compound 055]
IC50 (hENPP1 enzyme): 0.1 to 0.2 nM

COc1ccc2c3c(cnc2n1)COC(=O)N3Cc1ccc(S(N)(=O)=O)cn1 [Compound 070, 6-((8-methoxy-2-oxo-2H-[1,3]oxazino[5,4-c][1,8]naphthyridin-1(4H)-yl)methyl)pyridine-3-sulfonamide]
IC50 (hENPP1 enzyme): 0.1 to 0.2 nM

COc1ccc2c(ncc3c2n(Cc2c(F)cc(S(N)(=O)=O)cc2F)c(=O)n3CC(F)(F)F)n1 [ZX-131, reference compound]
IC50 (hENPP1 enzyme): 0.1 to 0.2 nM
EC50 [1]: 0.5 to 2 nM
AUC0-24 h ([2]; IV, 2 mpk): 4419 ng·h/mL
CL ([2]; IV, 2 mpk): 7.2 mL/min/kg
T1/2 ([2]; IV, 2 mpk): 6.01 h
VSS ([2]; IV, 2 mpk): 3.212 L/kg
AUC0-24 h ([2]; PO, 10 mpk): 3274 ng·h/mL
Cmax ([2]; PO, 10 mpk): 247 ng/mL
T1/2 ([2]; PO, 10 mpk): 7.78 h
Tmax ([2]; PO, 10 mpk): 6 h
F % ([2]; PO, 10 mpk vs IV, 2 mpk): 15%

COc1cnc2c(c1)ncc1[nH]c(=O)c(=O)n(Cc3c(F)cc(S(N)(=O)=O)cc3F)c12 [Compound 076]
IC50 (hENPP1 enzyme): 0.1 to 0.2 nM

COc1ccc2c3c(cnc2n1)NCC(=O)N3Cc1c(F)cc(S(N)(=O)=O)cc1F [Compound 049, 3,5-difluoro-4-((8-methoxy-2-oxo-3,4-dihydropyrazino[2,3-c][1,8]naphthyridine-1(2H)-yl)methyl)benzenesulfonamide]
IC50 (hENPP1 enzyme): 0.2 to 2 nM

COc1cc2ncc3c(c2cc1OC)N(Cc1c(F)cc(S(N)(=O)=O)cc1F)C(=O)OC3 [Compound 031, 4-((8,9-dimethoxy-2-oxo-2H-[1,3]oxazino[5,4-c]quinolin-1(4H)-yl)methyl)-3,5-difluorobenzenesulfonamide]
IC50 (hENPP1 enzyme): 0.2 to 2 nM

COc1ccc2c3c(cnc2c1)COC(=O)N3Cc1c(F)cc(S(N)(=O)=O)cc1F [Compound 030, 3,5-difluoro-4-((8-methoxy-2-oxo-2H-[1,3]oxazino[5,4-c]quinolin-1(4H)-yl)methyl)benzenesulfonamide]
IC50 (hENPP1 enzyme): 0.1 to 0.2 nM

COc1ccc2c3c(cnc2n1)N(C(=O)OC(C)(C)C)CCN3Cc1c(F)cc(S(N)(=O)=O)cc1F [Compound 050, tert-butyl 1-(2,6-difluoro-4-sulfamoylbenzyl)-8-methoxy-2,3-dihydropyrazino[2,3-c][1,8]naphthyridine-4(1H)-carboxylate]
IC50 (hENPP1 enzyme): 0.2 to 2 nM

COc1ccc2c3c(cnc2n1)CN(C1CC1)C(=O)N3Cc1c(F)cc(S(N)(=O)=O)cc1F [Compound 074]
IC50 (hENPP1 enzyme): 0.1 to 0.2 nM

COc1ccc2c3c(cnc2n1)NCCN3Cc1c(F)cc(S(N)(=O)=O)cc1F [Compound 066, 3,5-difluoro-4-((8-methoxy-3,4-dihydropyrazino[2,3-c][1,8]naphthyridine-1(2H)-yl)methyl)benzenesulfonamide]
IC50 (hENPP1 enzyme): 0.2 to 2 nM

CCOc1ccc2c(ncc3ncc(=O)n(Cc4c(F)cc(S(N)(=O)=O)cc4F)c32)n1 [Compound 063]
IC50 (hENPP1 enzyme): 0.2 to 2 nM

COc1ccc2c(ncc3c(=O)[nH]c(=O)n(Cc4c(F)cc(S(N)(=O)=O)cc4F)c32)n1 [Compound 017]
IC50 (hENPP1 enzyme): 0.2 to 2 nM

COc1ccc2c3c(cnc2n1)NCC(=O)N3Cc1c(F)cc(S(N)(=O)=O)cc1F [Compound 051]
IC50 (hENPP1 enzyme): 0.2 to 2 nM

COc1ccc2c(ncc3ccc(=O)n(Cc4c(F)cc(S(N)(=O)=O)cc4F)c32)n1 [Compound 008, 3,5-difluoro-4-((8-methoxy-2-oxopyrido[2,3-h][1,6]naphthyridine-1(2H)-yl)methyl)benzenesulfonamide]
IC50 (hENPP1 enzyme): 0.1 to 0.2 nM
EC50 [1]: < 0.5 nM
clearance [2, 3]: 4.78 mL/min/kg
half-life [2, 3]: 4.56 h
AUC(0-t) [2, 3]: 7450 ng·h/mL
Vd [2, 3]: 1.52 L/kg
half-life [2, 4]: 3.87 h
bioavailability [2, 5]: 20%
AUC(0-t) [2, 4]: 7340 ng·h/mL
Cmax [2, 6]: 798 ng/mL
Tmax [2, 7]: 3.17 h

COc1ccc2c3c(cnc2n1)COC(=O)N3Cc1c(F)cc(S(N)(=O)=O)cc1F [Compound 006, 3,5-difluoro-4-((8-methoxy-2-oxo-2H-[1,3]oxazino[5,4-c][1,8]naphthyridin-1(4H)-yl)methyl)benzenesulfonamide]
IC50 (hENPP1 enzyme): 0.1 to 0.2 nM
EC50 [1]: < 0.5 nM
bioavailability [2, 5]: 92.6%
